This note sets out measurements from publication PMC3066269 (Bioorganic & medicinal chemistry, 2011).

The target in this test is hAChE-induced aggregation of Aβ1–40 (Homo sapiens, UniProt P22303). Put plainly: hAChE-induced Aβ aggregation inhibition, thioflavin T fluorescence. It counts as biochemical. Particulars: 100 μM compound, 50 μM Aβ1–40, 24 h, ThT; NA = Not active.
Chain of hAChE-induced aggregation of Aβ1–40 (P22303 32-614): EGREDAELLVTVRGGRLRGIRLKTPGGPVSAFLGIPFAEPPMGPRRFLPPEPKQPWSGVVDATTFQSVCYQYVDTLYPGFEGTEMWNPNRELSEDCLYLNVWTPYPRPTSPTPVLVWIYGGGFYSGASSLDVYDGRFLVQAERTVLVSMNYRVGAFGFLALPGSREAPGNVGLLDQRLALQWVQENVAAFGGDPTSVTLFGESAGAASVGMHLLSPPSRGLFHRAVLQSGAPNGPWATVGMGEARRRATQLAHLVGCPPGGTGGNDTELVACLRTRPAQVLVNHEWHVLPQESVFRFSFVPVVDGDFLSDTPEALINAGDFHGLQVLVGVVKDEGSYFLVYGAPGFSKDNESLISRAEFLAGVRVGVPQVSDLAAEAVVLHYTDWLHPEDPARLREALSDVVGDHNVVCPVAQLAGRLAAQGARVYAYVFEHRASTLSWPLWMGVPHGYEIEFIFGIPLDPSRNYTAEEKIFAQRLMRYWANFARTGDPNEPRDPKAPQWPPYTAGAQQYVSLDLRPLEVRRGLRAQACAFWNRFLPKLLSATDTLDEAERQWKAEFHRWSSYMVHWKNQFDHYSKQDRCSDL

Take `c1ccc(CNc2ccnc(N3CCSCC3)n2)cc1` [7c, N-Benzyl-2-thiomorpholinopyrimidin-4-amine]: the “Inhibition of hAChE-induced aggregation of Aβ1–40 at 100 μM ± SEM” value (from here on “Inhibition … at 100 μM ± SEM”) is given as “either weak or no anti-aggregation activity”.
In the case of `c1ccc(CNc2ccnc(N3CCCC3)n2)cc1` [7a, N-Benzyl-2-(pyrrolidin-1-yl)pyrimidin-4-amine], the “Inhibition … at 100 μM ± SEM” value is given as “did not provide anti-aggregation activity”.
Turning to `c1ccc(CCNc2ccnc(N3CCSCC3)n2)cc1` [8c, N-Phenethyl-2-thiomorpholinopyrimidin-4-amine], the “Inhibition … at 100 μM ± SEM” value is on record as “either weak or no anti-aggregation activity”.
